Values of other authors in publication PMC6968775, “Assessment of contribution of BCRP to intestinal absorption of various drugs using portal‐systemic blood concentration difference model in mice” (Pharmacology Research & Perspectives, 2020).

Details: human; cited from earlier work

O=C(O)c1cn(C2CC2)c2cc(N3CCNCC3)c(F)cc2c1=O [ciprofloxacin, Ciprofloxacin]
oral BA in human: about 70%
